Our source for the TGI and GI50 values is PubChem BioAssay (NCI).

Some test systems named below: 786-0 renal; NCI-H226 lung; UACC-62 melanoma; SNB-75 CNS; K-562 leukemia; HCT-15 colon; UO-31 renal; U251 CNS; SR leukemia; HOP-92 NSCLC.
What all share (assay): NCI tumour cell line growth inhibition, 48 h

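These data come from cells grown in 96-well plates and exposed to compound for 48 hours at five concentrations. GI50 marks 50% less growth. TGI: total growth inhibition.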

For `COc1c(Cl)cc(NC(=S)C#N)cc1Cl`, the TGI is 88.2 µM with 786-0 renal; 57.6 µM with NCI-H226 lung; 30.8 µM with UACC-62 melanoma; 67.4 µM in the assay on SNB-75 CNS; over 100 µM in the assay with K-562 leukemia; 46.8 µM with HCT-15 colon. Further, the TGI in the assay on UO-31 renal is 56.1 µM; with U251 CNS it was 43.6 µM; with SR leukemia, over 92.2 µM; in the assay with HOP-92 NSCLC, 48.8 µM.
In the case of `C/C=C(/COC(C)=O)C(=O)OC1C=C(C=O)C(C)(C)C=C1C` (stereo not given), the TGI in the assay on 786-0 renal, with NCI-H226 lung, with UACC-62 melanoma, with SNB-75 CNS, with K-562 leukemia and in the assay on HCT-15 colon was over 100 µM in each case. Besides, the TGI with UO-31 renal, with U251 CNS, in the assay on SR leukemia and in the assay on HOP-92 NSCLC was over 100 µM in each case.
For the compound `N#CC(c1nc2ccccc2nc1Cl)S(=O)(=O)c1ccccc1` (stereo not given), the TGI in the assay with 786-0 renal, in the assay with NCI-H226 lung, in the assay with UACC-62 melanoma, with SNB-75 CNS, in the assay with K-562 leukemia and in the assay with HCT-15 colon was over 100 µM each time. The TGI was over 100 µM in the assay with UO-31 renal, over 100 µM in the assay on U251 CNS, over 100 µM in the assay with SR leukemia and 70.1 µM with HOP-92 NSCLC.
`COc1ccc(C(=O)c2cc3c(N)c(C(=O)Nc4cccc5ccccc45)sc3nc2C)cc1`: the GI50 with 786-0 renal is 0.305 µM; in the assay on NCI-H226 lung, 0.332 µM; in the assay on UACC-62 melanoma it was 0.285 µM; in the assay with SNB-75 CNS, 0.137 µM; in the assay with K-562 leukemia, 0.163 µM; in the assay on HCT-15 colon it was 0.192 µM. Also, the GI50 in the assay on UO-31 renal is 0.422 µM; in the assay on U251 CNS it was 0.194 µM; in the assay on SR leukemia, 0.161 µM; with HOP-92 NSCLC, 0.181 µM. Moreover, the TGI in the assay with 786-0 renal, in the assay on NCI-H226 lung, in the assay with UACC-62 melanoma, in the assay with SNB-75 CNS, with K-562 leukemia and in the assay with HCT-15 colon was over 50 µM throughout. The TGI is over 50 µM with UO-31 renal, over 50 µM in the assay with U251 CNS, over 50 µM with SR leukemia and over 13.5 µM with HOP-92 NSCLC.
As for `O=CC1CCCc2ccccc21` (stereo not given), the TGI was over 100 µM in the assay on 786-0 renal; over 100 µM in the assay on NCI-H226 lung; over 100 µM with UACC-62 melanoma; over 100 µM in the assay with SNB-75 CNS; over 100 µM in the assay with K-562 leukemia; over 91.6 µM in the assay on HCT-15 colon. In addition, the TGI in the assay on UO-31 renal was over 100 µM; with U251 CNS it was over 59.4 µM; in the assay on SR leukemia, over 100 µM; in the assay on HOP-92 NSCLC, over 100 µM.
In the case of `COc1cccc(-n2ncc3c(N/N=C/c4ccncc4)ncnc32)c1`, the GI50 in the assay with 786-0 renal is 4.66 µM; in the assay with NCI-H226 lung it was over 6.17 µM; with UACC-62 melanoma, 4.28 µM; in the assay with SNB-75 CNS, 2.48 µM; in the assay with K-562 leukemia it was 0.779 µM; in the assay on HCT-15 colon, 3.57 µM. Besides, the GI50 in the assay on UO-31 renal is 2.45 µM; with U251 CNS it was 1.1 µM; in the assay with SR leukemia, 2.12 µM; in the assay on HOP-92 NSCLC, over 25 µM. Besides, the TGI with 786-0 renal, in the assay with NCI-H226 lung, in the assay with UACC-62 melanoma, with SNB-75 CNS, with K-562 leukemia and in the assay with HCT-15 colon was over 25 µM throughout. In addition, the TGI in the assay on UO-31 renal, in the assay with U251 CNS, with SR leukemia and in the assay with HOP-92 NSCLC was over 25 µM in each case.
Consider `O=C(COc1ccc(/C=C2\Oc3ccccc3C2=O)cc1)Nc1nc2c(s1)CCCC2`, for which the GI50 was 0.818 µM with 786-0 renal; 8.55 µM with NCI-H226 lung; 23.2 µM in the assay on UACC-62 melanoma; 0.221 µM in the assay on SNB-75 CNS; 18.8 µM in the assay with K-562 leukemia; 25.1 µM with HCT-15 colon. Further, the GI50 with UO-31 renal was 1.87 µM; in the assay on U251 CNS it was 2.29 µM; with SR leukemia, 0.59 µM; with HOP-92 NSCLC, 0.212 µM. Besides, the TGI in the assay on 786-0 renal was 31.7 µM; in the assay on NCI-H226 lung, 42 µM; with UACC-62 melanoma it was over 100 µM; in the assay on SNB-75 CNS, 0.609 µM; in the assay with K-562 leukemia it was over 100 µM; with HCT-15 colon, over 100 µM. For the same compound, the TGI is over 49.5 µM with UO-31 renal, over 100 µM with U251 CNS, 2.44 µM in the assay with SR leukemia and 2.53 µM with HOP-92 NSCLC.
For `Cc1ccc(N2C(=O)C3C=CC(n4[nH]c(=O)n(Cc5ccccc5)c4=O)CC3C2=O)cc1` (stereo not given), the TGI with 786-0 renal, in the assay on NCI-H226 lung, with UACC-62 melanoma, with SNB-75 CNS, in the assay on K-562 leukemia and in the assay on HCT-15 colon was over 100 µM in each case. Besides, the TGI in the assay with UO-31 renal, with U251 CNS, in the assay on SR leukemia and with HOP-92 NSCLC was over 100 µM in each case.
